Assay results: ChEMBL document CHEMBL1212797, “Miltefosine efficiently eliminates Leishmania major amastigotes from infected murine dendritic cells without altering their immune functions” (Antimicrob Agents Chemother, 2010)
Active and inactive are the calls of the source. No cut-off for these calls is given here.

Legend:
[1] = Induction of apoptosis in C57BL/6 mouse dendritic cells assessed as necrotic cells at 25 uM after 18 hrs using annexin V-propidium iodide and annexin V staining by flow cytometry; format: cell-based
[2] = Induction of apoptosis in C57BL/6 mouse dendritic cells assessed as viable cells at 5 uM after 18 hrs using annexin V-propidium iodide and annexin V staining by flow cytometry; format: cell-based; settings: read-out: Activity
[3] = Induction of apoptosis in C57BL/6 mouse dendritic cells assessed as late apoptotic cells at 5 uM after 18 hrs using annexin V-propidium iodide and annexin V staining by flow cytometry; format: cell-based
[4] = Induction of apoptosis in C57BL/6 mouse dendritic cells assessed as early apoptotic cells at 5 uM after 18 hrs using annexin V-propidium iodide and annexin V staining by flow cytometry; format: cell-based
[5] = Induction of apoptosis in C57BL/6 mouse dendritic cells assessed as necrotic cells at 5 uM after 18 hrs using annexin V-propidium iodide and annexin V staining by flow cytometry; format: cell-based
[6] = Cytotoxicity against C57BL/6 mouse immature bone marrow-derived dendritic cells assessed as reduction of cell survival at >100 uM after 48 hrs by propidium iodide exclusion staining based flow cytometry
[7] = Induction of apoptosis in C57BL/6 mouse dendritic cells assessed as late apoptotic cells at 25 uM after 18 hrs using annexin V-propidium iodide and annexin V staining by flow cytometry; format: cell-based
[8] = Induction of apoptosis in C57BL/6 mouse dendritic cells assessed as early apoptotic cells at 25 uM after 18 hrs using annexin V-propidium iodide and annexin V staining by flow cytometry; format: cell-based
[9] = Induction of apoptosis in C57BL/6 mouse dendritic cells assessed as […] viable cells at 25 uM after 18 hrs using annexin V-propidium iodide and annexin V staining by flow cytometry; format: cell-based; settings: read-out: Activity
[10] = Induction of apoptosis in C57BL/6 mouse dendritic cells assessed as necrotic cells at 50 uM after 18 hrs using annexin V-propidium iodide and annexin V staining by flow cytometry; format: cell-based
[11] = Induction of apoptosis in C57BL/6 mouse dendritic cells assessed as late apoptotic cells at 50 uM after 18 hrs using annexin V-propidium iodide and annexin V staining by flow cytometry; format: cell-based
[12] = Induction of apoptosis in C57BL/6 mouse dendritic cells assessed as early apoptotic cells at 50 uM after 18 hrs using annexin V-propidium iodide and annexin V staining by flow cytometry; format: cell-based
[13] = Induction of apoptosis in C57BL/6 mouse dendritic cells assessed as viable cells at 50 uM after 18 hrs using annexin V-propidium iodide and annexin V staining by flow cytometry; format: cell-based; settings: read-out: Activity
[14] = Induction of apoptosis in C57BL/6 mouse dendritic cells assessed as necrotic cells at 5 uM after 72 hrs using annexin V-propidium iodide and annexin V staining by flow cytometry; format: cell-based
[15] = Induction of apoptosis in C57BL/6 mouse dendritic cells assessed as late apoptotic cells at 5 uM after 72 hrs using annexin V-propidium iodide and annexin V staining by flow cytometry; format: cell-based
[16] = Induction of apoptosis in C57BL/6 mouse dendritic cells assessed as early apoptotic cells at 5 uM after 72 hrs using annexin V-propidium iodide and annexin V staining by flow cytometry; format: cell-based
[17] = Induction of apoptosis in C57BL/6 mouse dendritic cells assessed as viable cells at 5 uM after 72 hrs using annexin V-propidium iodide and annexin V staining by flow cytometry; format: cell-based; settings: read-out: Activity
[18] = Induction of apoptosis in C57BL/6 mouse dendritic cells assessed as necrotic cells at 25 uM after 72 hrs using annexin V-propidium iodide and annexin V staining by flow cytometry; format: cell-based
[19] = Induction of apoptosis in C57BL/6 mouse dendritic cell assessed as early apoptotic cells at 50uM after 18 hrs using annexin V-propidium iodide staining by flow cytometry; format: cell-based
[20] = Induction of apoptosis in C57BL/6 mouse dendritic cells assessed as late apoptotic cells at 25 uM after 72 hrs using annexin V-propidium iodide and annexin V staining by flow cytometry; format: cell-based
[21] = Induction of apoptosis in C57BL/6 mouse dendritic cells assessed as viable cells at 25 uM after 72 hrs using annexin V-propidium iodide and annexin V staining by flow cytometry; format: cell-based; settings: read-out: Activity
[22] = Induction of apoptosis in C57BL/6 mouse dendritic cells assessed as necrotic cells at 50 uM after 72 hrs using annexin V-propidium iodide and annexin V staining by flow cytometry; format: cell-based
[23] = Induction of apoptosis in C57BL/6 mouse dendritic cells assessed as late apoptotic cells at 50 uM after 72 hrs using annexin V-propidium iodide and annexin V staining by flow cytometry; format: cell-based
[24] = Induction of apoptosis in C57BL/6 mouse dendritic cells assessed as early apoptotic cells at 50 uM after 72 hrs using annexin V-propidium iodide and annexin V staining by flow cytometry; format: cell-based
[25] = Induction of apoptosis in C57BL/6 mouse dendritic cells assessed as viable cells at 50 uM after 72 hrs using annexin V-propidium iodide and annexin V staining by flow cytometry; format: cell-based; settings: read-out: Activity
[26] = Cytotoxicity against C57BL/6 mouse immature bone marrow-derived dendritic cells at 5 uM after 72 to 96 hrs by propidium iodide exclusion staining based flow cytometry; format: cell-based
dendritic [27] = assay: Immunomodulatory effect in Leishmania major uninfected C57BL/6 mouse bone marrow dendritic cells assessed as expression of MHC-2 at 5 to 50 uM after 18 hrs by flow cytometry; format: functional, cell-based
dendritic [28] = assay: Immunomodulatory effect in Leishmania major uninfected C57BL/6 mouse bone marrow dendritic cells assessed as CD40 expression at 5 to 50 uM after 18 hrs by flow cytometry; format: functional, cell-based
dendritic [29] = assay: Immunomodulatory effect in Leishmania major uninfected C57BL/6 mouse bone marrow dendritic cells assessed as CD54 expression at 5 to 50 uM after 18 hrs by flow cytometry; format: functional, cell-based
dendritic [30] = assay: Immunomodulatory effect in Leishmania major uninfected C57BL/6 mouse bone marrow dendritic cells assessed as CD86 expression at 5 to 50 uM after 18 hrs by flow cytometry; format: functional, cell-based
dendritic [31] = assay: Immunomodulatory effect in Leishmania major Leishmania major infected sC57BL/6 mouse bone marrow dendritic cells assessed as CD40 expression at 5 to 50 uM after 18 hrs by flow cytometry; format: functional, cell-based; settings: C57BL/6
dendritic [32] = assay: Immunomodulatory effect in Leishmania major Leishmania major infected sC57BL/6 mouse bone marrow dendritic cells assessed as CD54 expression at 5 to 50 uM after 18 hrs by flow cytometry; format: functional, cell-based; settings: C57BL/6
dendritic [33] = assay: Immunomodulatory effect in Leishmania major Leishmania major infected sC57BL/6 mouse bone marrow dendritic cells assessed as CD86 expression at 5 to 50 uM after 18 hrs by flow cytometry; format: functional, cell-based; settings: C57BL/6
Mus musculus [34] = assay: Immunomodulatory effect in Leishmania major infected C57BL/6 mouse assessed as levels of CD11c+ and MHC-2+ in dendritic cells at 20 ug administered topically measured after 48 hrs by FACS method; format: functional, organism-based
Mus musculus [35] = assay: Immunomodulatory effect in Leishmania major infected C57BL/6 mouse assessed as levels of CD11c+ and MHC-2+ in dendritic cells at 200 ug administered topically measured after 48 hrs by FACS method; format: functional, organism-based
dendritic [36] = assay: Immunomodulatory effect in uninfected C57BL/6 mouse dendritic cells assessed as TNF-alpha production after 18 hrs by ELISA; format: functional, cell-based
dendritic [37] = assay: Immunomodulatory effect in Leishmania major infected C57BL/6 mouse dendritic cells assessed as TNF-alpha production after 18 hrs by ELISA; format: functional, cell-based
dendritic [38] = assay: Immunomodulatory effect in uninfected C57BL/6 mouse dendritic cells assessed as IL-12p40 production after 18 hrs by ELISA; format: functional, cell-based
dendritic [39] = assay: Immunomodulatory effect in Leishmania major infected C57BL/6 mouse dendritic cells assessed as IL-12p40 production after 18 hrs by ELISA; format: functional, cell-based
dendritic [40] = assay: Immunomodulatory effect in uninfected C57BL/6 mouse dendritic cells assessed as IL-12p70 production after 18 hrs by ELISA; format: functional, cell-based
dendritic [41] = assay: Immunomodulatory effect in Leishmania major infected C57BL/6 mouse dendritic cells assessed as IL-12p70 production after 18 hrs by ELISA; format: functional, cell-based
dendritic [42] = assay: Immunomodulatory effect in uninfected C57BL/6 mouse dendritic cells assessed as IL-10 production after 18 hrs by ELISA; format: functional, cell-based
dendritic [43] = assay: Immunomodulatory effect in Leishmania major infected C57BL/6 mouse dendritic cells assessed as IL-10 production after 18 hrs by ELISA; format: functional, cell-based
dendritic [44] = assay: Induction of nitric oxide release in Leishmania major amastigotes infected C57BL/6 mouse dendritic cells assessed as nitrite production after 72 hrs; format: functional, cell-based
Leishmania major = assay: Antileishmenia activity against Leishmania major amastigotes infected in C57BL/6 mouse dendritic cells assessed as decrease in intracellular parasite amastigotes level at 50 uM by light microscopy; format: functional, organism-based
dendritic [45] = assay: Effect on antigen specific CD4+ T cells expansion by Leishmania major amastigotes infected C57BL/6 mouse dendritic cells assessed as increase in [3H]thymidine incorporation at 50 uM after 72 hrs; format: functional, cell-based
dendritic [46] = assay: Effect on antigen specific CD8+ T cells expansion by Leishmania major amastigotes infected C57BL/6 mouse dendritic cells assessed as increase in [3H]thymidine incorporation at 50 uM after 72 hrs; format: functional, cell-based
Homo sapiens = organism: Homo sapiens; assay: Plasma concentration in leishmaniasis patient during last week of 4-week treatment course; format: ADME, organism-based; settings: in vivo
dendritic [47] = assay: Immunomodulatory effect in Leishmania major Leishmania major infected sC57BL/6 mouse bone marrow dendritic cells assessed as MHC-2 expression at 5 to 50 uM after 18 hrs by flow cytometry; format: functional, cell-based; settings: C57BL/6

## CCCCCCCCCCCCCCCCOP(=O)([O-])OCC[N+](C)(C)C [MILTEFOSINE]
[1]
  Activity: 5.83%
[2]
  viability at 18 h, 5 µM: 84%
[3]
  Activity: 11.41%
[4]
  Activity: 20.7%
[5]
  Activity: 3.91%
[6]
  Activity: Toxic
[7]
  Activity: 15.89%
[8]
  Activity: 19.91%
[9]
  viability at 18 h, 25 µM: 58.4%
[10]
  Activity: 6.6%
[11]
  Activity: 18.57%
[12]
  Activity: 23.15%
[13]
  viability at 18 h, 50 µM: 51.7%
[14]
  Activity: 5.16%
[15]
  Activity: 35.67%
[16]
  Activity: 23.15%
[17]
  viability at 72 h, 5 µM: 36%
[18]
  Activity: 6.2%
[19]
  Activity: 43.18%
[20]
  Activity: 22.72%
[21]
  viability at 72 h, 25 µM: 28.9%
[22]
  Activity: 6.56%
[23]
  Activity: 54.56%
[24]
  Activity: 21.16%
[25]
  viability at 72 h, 50 µM: 17.7%
[26]
  Activity: Active
Dendritic [27]
  Activity: inactive
Dendritic [28]
  Activity: inactive
Dendritic [29]
  Activity: inactive
Dendritic [30]
  Activity: inactive
Dendritic [31]
  Activity: inactive
Dendritic [32]
  Activity: inactive
Dendritic [33]
  Activity: inactive
Mus musculus [34]
  Activity: inactive
Mus musculus [35]
  Activity: inactive
Dendritic [36]
  Activity: inactive
Dendritic [37]
  Activity: inactive
Dendritic [38]
  Activity: inactive
Dendritic [39]
  Activity: inactive
Dendritic [40]
  Activity: inactive
Dendritic [41]
  Activity: inactive
Dendritic [42]
  Activity: inactive
Dendritic [43]
  Activity: inactive
Dendritic [44]
  Activity: inactive
Leishmania major
  inhibition: Dose-dependent effect
Dendritic [45]
  Activity: inactive
Dendritic [46]
  Activity: inactive
Homo sapiens
  Cp: 30800 ng/mL
Dendritic [47]
  Activity: inactive
